“And” between values parts separate entries of the source, which are not always exact repeats. Identical values can stand only once.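 Where inhibition never reached the appropriate level, the endpoint shown equals the highest concentration tested. Otherwise, values were interpolated linearly from a five-concentration, 48-hour dose response in 96-well plates. GI50 is the concentration that inhibits growth by half. At the TGI there is no net growth.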
Experiments:
Test in all cases: NCI-60 cell line screen, 48 h
ACHN renal = tested on: ACHN renal
UACC-257 melanoma = tested on: UACC-257 melanoma
MALME-3M melanoma = tested on: MALME-3M melanoma
T-47D breast = tested on: T-47D breast
SNB-19 CNS = tested on: SNB-19 CNS
SK-MEL-28 melanoma = tested on: SK-MEL-28 melanoma
SF-295 CNS = tested on: SF-295 CNS
EKVX NSCLC = tested on: EKVX NSCLC
HT29 colon = tested on: HT29 colon
DU-145 prostate = tested on: DU-145 prostate

Row | SMILES | GI50 (ACHN renal) | TGI (ACHN renal) | GI50 (UACC-257 melanoma) | TGI (UACC-257 melanoma) | GI50 (MALME-3M melanoma) | TGI (MALME-3M melanoma) | GI50 (T-47D breast) | TGI (T-47D breast) | TGI (SNB-19 CNS) | GI50 (SK-MEL-28 melanoma) | TGI (SK-MEL-28 melanoma) | GI50 (SF-295 CNS) | TGI (SF-295 CNS) | GI50 (EKVX NSCLC) | TGI (EKVX NSCLC) | GI50 (HT29 colon) | GI50 (DU-145 prostate) | GI50 (SNB-19 CNS) | TGI (HT29 colon) | TGI (DU-145 prostate)
1 | COc1ccc(/C=C\c2cc(OC)c(OC)c(OC)c2)cc1OC(=O)c1cccc(Cn2cc(CCOC(=O)c3cccc(Cn4nnc5c4C(=O)c4ccccc4C5=O)c3)nn2)c1 | 0.0153 µM | > 84.5 µM | 22.9 µM | > 100 µM | 0.178 µM | > 71.3 µM | 51.6 µM | > 100 µM | 30.6 µM | 11.7 µM | > 75.7 µM | 0.0316 µM | 4.36 µM | 0.062 µM | > 100 µM | 0.321 µM | < 0.01 µM | – | – | –
2 | C#COc1cccc(Nc2ncnc3ncc(NC(=O)CCl)cc23)c1 | – | > 62.5 µM | > 62.5 µM | > 62.5 µM | > 23.7 µM | > 38 µM | > 62.5 µM | > 62.5 µM | > 62.5 µM | > 59.6 µM | > 62.5 µM | > 52.9 µM | > 62.5 µM | > 62.5 µM | > 62.5 µM | – | > 26.4 µM | > 43.3 µM | > 62.5 µM | > 62.5 µM
3 | COc1cc([C@@H]2c3cc4c(cc3[C@@H](O[C@@H]3O[C@@H]5CO[C@@H](c6cccs6)O[C@H]5[C@H](O)[C@H]3O)[C@H]3COC(=O)[C@H]23)OCO4)cc(OC)c1O | – | 3.69 µM | 0.796 µM | 10.5 µM | 0.435 µM | 5.02 µM | 0.207 µM | 12.3 µM | > 100 µM | 0.44 µM | 2.9 µM | 0.186 µM | 8.21 µM | 4.1 µM | > 100 µM | 0.614 µM | 0.288 µM | 0.167 µM | 3.66 µM | 3.43 µM
4 | Nc1ccccc1NC(=O)c1ccc(CN2CCC/C(=C\c3cccc(Cl)c3)C2=O)cc1 | 0.129 µM | 6.32 µM | – | – | 1.59 µM | 16.4 µM | 3.34 µM | 56.6 µM | > 100 µM | 1.16 µM | 58.9 µM | 1.05 µM | 15.2 µM | 0.567 µM | > 100 µM | 0.144 µM | 0.432 µM | 0.355 µM | 1.89 µM | 25.7 µM
5 | COc1cc2c3c(n(C)c(=O)c2cc1OC)-c1cc2c(cc1/C3=C\CCCBr)OCO2 | 7.37 µM | 25.3 µM | > 41.5 µM | > 100 µM | 7.2 µM | > 45.4 µM | > 91.3 µM | > 100 µM | > 65.8 µM | > 100 µM | > 100 µM | 9.16 µM | 30.8 µM | 15.6 µM | > 62.5 µM | > 100 µM | > 59.6 µM | 23.4 µM | > 100 µM | > 100 µM
6 | COc1c(CNC(=O)CCl)cc2[nH]c(C)cc2c1CNC(=O)CCl | 5.47 µM | 31.6 µM | 6.8 µM | 36.5 µM | 16.1 µM | 50.3 µM | 3.55 µM | 23.1 µM | 91 µM | 5.44 µM | 29.8 µM | 12.8 µM | 71.9 µM | 11 µM | 27.5 µM | 5.97 µM | 5.03 µM | 12.5 µM | 25.2 µM | 19.7 µM
7 | CC[C@H](C)n1cc(C)c2c(C(=O)NCc3c(C)cc(C)[nH]c3=O)cc(-c3ccc(N4CCNCC4)nc3)cc21 | 17.1 µM and 16.5 µM | 31.2 µM and 31.3 µM | 16.5 µM and 14.8 µM | 31.5 µM and 29.5 µM | 8 µM and 2.51 µM | 21.5 µM and 6.78 µM | 16.6 µM and 11.4 µM | 36.3 µM and 28.4 µM | 30.4 µM and 26.8 µM | 14.1 µM and 6.51 µM | 27.8 µM and 19.9 µM | 16.2 µM and 14.8 µM | 31.9 µM and 29.3 µM | 12.6 µM and 13.6 µM | 27 µM and 27.6 µM | 5.19 µM and 6.53 µM | 14.7 µM and 15.1 µM | 14.9 µM and 12.7 µM | 18.4 µM and 20.6 µM | 27.9 µM and 28.7 µM
8 | Cc1cc(-c2nc(-c3ccc(OC(F)(F)F)cc3)no2)nn1Cc1ccnc(N2CCN(C3CC3)CC2)c1 | 3.1 µM | > 100 µM | 2.84 µM | > 55.4 µM | 4.77 µM | > 55.6 µM | 1.03 µM | > 100 µM | > 100 µM | 3.6 µM | > 40.2 µM | < 0.01 µM | > 100 µM | < 0.01 µM | > 51.6 µM | 5.26 µM | > 59.4 µM | > 23.1 µM | > 56.9 µM | > 100 µM
9 | COc1ccc(Cc2cnc(NC(=O)c3sc4ccccc4c3Cl)s2)cc1 | 0.808 µM | > 100 µM | 25.7 µM | > 100 µM | 0.81 µM | > 100 µM | 0.768 µM | > 100 µM | > 100 µM | 3.84 µM | > 100 µM | 0.383 µM | > 100 µM | 0.48 µM | > 100 µM | 0.37 µM | 0.37 µM | 0.461 µM | > 100 µM | > 100 µM
10 | c1ccc(-c2nn(-c3ccccc3)[n+](-c3cccc4ccccc34)n2)cc1 | 12 µM | > 100 µM | 0.48 µM | 8.18 µM | 0.333 µM | 1.13 µM | 0.825 µM | 17.4 µM | > 100 µM | 2.36 µM | 13.9 µM | 2.69 µM | 26.6 µM | 0.583 µM | 33.3 µM | 0.918 µM | 4.26 µM | 2.01 µM | 15.1 µM | > 100 µM
11 | Oc1cc(O)c2c(=S)cc(-c3ccc(Cl)cc3)oc2c1 | 2.61 µM | 11.1 µM | 2.75 µM | 7.96 µM | 2.01 µM | 6.71 µM | 0.0304 µM | 0.547 µM | 16.3 µM | 4.15 µM | 18.4 µM | 5.67 µM | 22.9 µM | 9.36 µM | 54.1 µM | 19.7 µM | 4.09 µM | 3.68 µM | 39.7 µM | 35.1 µM
12 | C=C(C)[C@@H]1CCC2=C[C@@H](OC2=O)[C@@H](C(=C)C)C(=O)/C=C(/C)C(=O)C1 | 37.3 µM | > 100 µM | 58.3 µM | > 100 µM | 23.8 µM | 71.5 µM | 51.1 µM | > 100 µM | > 100 µM | 34.8 µM | 87.5 µM | 35.9 µM | > 100 µM | 52.4 µM | > 100 µM | 41.8 µM | 34.9 µM | 33.8 µM | > 100 µM | > 100 µM
